From ChEMBL document CHEMBL1201862, “PubChem BioAssay data set” (2004)
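Tested at 5 concentrations; 48 h exposure; 96-well plates; endpoints linearly interpolated, else capped at highest concentration. At the GI50, growth is halved.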 The source made the active and inactive calls. No stated cut-off is given here; in the data, active = GI50 up to about 1.1 µM and inactive = higher.

Tests used:
Assay in all cases: NCI tumour cell line growth inhibition, 48 h
[1] = test system: M14
[2] = test system: NCI-H226
[3] = test system: OVCAR-5
[4] = test system: SF-268
[5] = test system: ACHN
[6] = test system: RPMI-8226
[7] = test system: SNB-75
[8] = test system: RXF 393
[9] = test system: EKVX
[10] = test system: TK-10
[11] = test system: CAKI-1
[12] = test system: SK-MEL-2
[13] = test system: HCC 2998
[14] = test system: OVCAR-3
[15] = test system: KM-20L2
[16] = test system: NCI-H522
[17] = test system: HOP-62
[18] = test system: NCI/ADR-RES
[19] = test system: MCF7
[20] = test system: HOP-18

In the case of `O=C(O)C12CC3CC(C1)C2C=C3P(=O)(O)O` (stereo unspecified), the GI50 [1] is reported as > 100 µM (inactive), the GI50 [2] is reported as > 100 µM (inactive) and the GI50 [3] is reported as > 100 µM (inactive). For the same compound, the GI50 [4] was > 100 µM (inactive), the GI50 [5] was > 100 µM (inactive) and the GI50 [6] was > 100 µM (inactive). The GI50 [7] was > 100 µM (inactive), the GI50 [8] was > 100 µM (inactive) and the GI50 [9] was > 100 µM (inactive). The GI50 [10] was > 100 µM (inactive), the GI50 [11] was > 100 µM (inactive) and the GI50 [12] was > 100 µM (inactive). The GI50 [13] was > 100 µM (inactive), the GI50 [14] was > 100 µM (inactive) and the GI50 [15] was > 100 µM (inactive). For the same compound, the GI50 [16] was > 100 µM (inactive) and the GI50 [17] was > 100 µM (inactive).
With `CN(C)CCNC(=O)c1cccc2nc(-c3ccccc3)oc12` the GI50 [2] was 29.1 µM (inactive), the GI50 [3] was 38.5 µM (inactive) and the GI50 [4] was > 64.6 µM (inactive). For the same compound, the GI50 [18] was 42.9 µM (inactive), the GI50 [19] was 14.7 µM (inactive) and the GI50 [6] was 34.6 µM (inactive). The GI50 [20] was > 61.2 µM (inactive), the GI50 [7] was 13.5 µM (inactive) and the GI50 [8] was 32.2 µM (inactive). The GI50 [9] was 6.97 µM (inactive), the GI50 [12] was > 62.5 µM (inactive) and the GI50 [13] was 54.5 µM (inactive). The GI50 [14] was 41.9 µM (inactive), the GI50 [15] was 28.8 µM (inactive) and the GI50 [17] was > 66.7 µM (inactive).
`CCOC(=O)C1=NN(c2ccccc2)C2=CC(C)=NN(C)C(=S)N21` was tested, and the GI50 [1] was > 100 µM (inactive), the GI50 [3] was > 100 µM (inactive) and the GI50 [4] was > 100 µM (inactive). For the same compound, the GI50 [18] was > 100 µM (inactive), the GI50 [5] was > 100 µM (inactive) and the GI50 [19] was > 100 µM (inactive). The GI50 [6] was > 100 µM (inactive), the GI50 [7] was > 100 µM (inactive) and the GI50 [8] was > 100 µM (inactive). For the same compound, the GI50 [9] was > 100 µM (inactive), the GI50 [10] was > 100 µM (inactive) and the GI50 [11] was > 100 µM (inactive). For the same compound, the GI50 [12] was > 100 µM (inactive), the GI50 [13] was > 100 µM (inactive) and the GI50 [14] was > 100 µM (inactive). For the same compound, the GI50 [16] was > 100 µM (inactive).
For `Cc1cc(O)nc(NN2C(Cl)C(=O)C2c2c(O)ccc3ccccc23)n1` (stereo unspecified), the GI50 [1] was 15.2 µM (inactive), the GI50 [2] was 13 µM (inactive) and the GI50 [3] was 36.9 µM (inactive). For the same compound, the GI50 [4] was 23.1 µM (inactive), the GI50 [5] was 20.7 µM (inactive) and the GI50 [6] was 15.5 µM (inactive). For the same compound, the GI50 [20] was 12 µM (inactive), the GI50 [7] was 8.75 µM (inactive) and the GI50 [8] was 13.2 µM (inactive). The GI50 [9] was 43.8 µM (inactive), the GI50 [10] was 37.2 µM (inactive) and the GI50 [12] was 15.2 µM (inactive). The GI50 [13] was 15 µM (inactive), the GI50 [14] was 13.2 µM (inactive) and the GI50 [15] was 22.6 µM (inactive). For the same compound, the GI50 [17] was 15.1 µM (inactive).
For `CCP(=S)(CC)CCl`, the GI50 [1] was > 100 µM (inactive), the GI50 [2] was > 100 µM (inactive) and the GI50 [3] was > 100 µM (inactive). The GI50 [18] was > 100 µM (inactive), the GI50 [5] was > 100 µM (inactive) and the GI50 [19] was > 100 µM (inactive). The GI50 [6] was > 100 µM (inactive), the GI50 [7] was > 100 µM (inactive) and the GI50 [10] was > 100 µM (inactive). For the same compound, the GI50 [11] was > 100 µM (inactive), the GI50 [12] was > 100 µM (inactive) and the GI50 [13] was > 100 µM (inactive). For the same compound, the GI50 [14] was > 100 µM (inactive), the GI50 [16] was > 100 µM (inactive) and the GI50 [17] was > 100 µM (inactive).
With `CC(=O)OC1CC2(O)C(CCC3(C)C(c4ccc(=O)oc4)CCC32O)C2(C)CCC(O)C=C12` (stereo unspecified) the GI50 [2] was 0.048 µM (active), the GI50 [3] was 0.104 µM (active) and the GI50 [4] was 0.0375 µM (active). The GI50 [18] was 0.0125 µM (active), the GI50 [19] was 0.0375 µM (active) and the GI50 [6] was 0.00993 µM (active). The GI50 [20] was 0.0094 µM (active), the GI50 [7] was 0.0317 µM (active) and the GI50 [8] was 0.0375 µM (active). The GI50 [9] was 0.0139 µM (active), the GI50 [11] was 0.0375 µM (active) and the GI50 [12] was 0.0177 µM (active). The GI50 [13] was 0.0644 µM (active), the GI50 [14] was 0.00469 µM (active) and the GI50 [15] was 0.0219 µM (active). For the same compound, the GI50 [16] was 0.00174 µM (active) and the GI50 [17] was 0.0375 µM (active).
